# Like-named read-outs stand apart in the source and are kept apart here.
# Experiments:
# [1] = test system: MCF7 human breast cancer cell line; assay: MTT cytotoxicity assay, MCF7; conditions: MCF7, 72 h, read-out: IC50 (µM) (Mean ± SD) MCF7
# Experimental: (§1) All the synthesized imidazothiazole derivatives linked with thiazolidinone moiety (4a-g and 5a-d, Fig. 4) were evaluated for their in- vitro anticancer activities against three selected human cancer cell lines namely non-small lung (A549), breast (MCF7) and colorectal (HCT116) and one normal human embryonic kidney cell line (HEK293) using the 3‐(4,5‐Dimethylthiazol‐2‐yl)-2,5‐Diphenyltetrazolium Bromide (MTT) assay method. […] Compounds were tested against selected cancer cell lines namely A549 (Lung), MCF-7(Breast) HCT116 (Colon), normal human embryonic kidney cell line (HEK293) and procured from National Centre for Cell Science Complex (NCCS) Pune University, India. Into a 96 well plate, cells were seeded into each well (3 × 10^3 cells/ per well), the plate were incubated for 24 h, after that the culture medium was discarded and replaced with fresh medium along with our newly synthesized test compounds in different concentration (10, 20, 40 and 80 µM) followed by incubation for 72 h. […] Finally, each well is treated with DMSO (100 µL) and swirled to dissolve the dark crystals of formazan. ELISA reader was used to measure the absorbance at 570 nm. The experiment was repeated three times; Graph pad prism and excel are used to calculate the IC50 values[51].
# [2] = test system: HCT116 human colorectal cancer cell line; assay: MTT cytotoxicity assay, HCT116; conditions: HCT-116, 72 h, read-out: IC50 (µM) (Mean ± SD) HCT116
# Experimental: as §1
# [3] = test system: HEK293 human embryonic kidney cell line; assay: MTT cytotoxicity assay, normal cell line HEK293; format: cell-based; conditions: read-out: IC50 (Mean ± SD) HEK293
# Experimental: All the synthesized imidazothiazole derivatives linked with thiazolidinone moiety (4a-g and 5a-d, Fig. 4) were evaluated for their in- vitro anticancer activities against three selected human cancer cell lines namely non-small lung (A549), breast (MCF7) and colorectal (HCT116) and one normal human embryonic kidney cell line (HEK293) using the 3‐(4,5‐Dimethylthiazol‐2‐yl)-2,5‐Diphenyltetrazolium Bromide (MTT) assay method. […]. […].
# Cytotoxicity study of the newly synthesized derivatives 4a-g and 5a-d was performed by MTT colorimetric assay method. […] Compounds were tested against selected cancer cell lines namely A549 (Lung), MCF-7(Breast) HCT116 (Colon), normal human embryonic kidney cell line (HEK293) and procured from National Centre for Cell Science Complex (NCCS) Pune University, India. Into a 96 well plate, cells were seeded into each well (3 × 10^3 cells/ per well), the plate were incubated for 24 h, after that the culture medium was discarded and replaced with fresh medium along with our newly synthesized test compounds in different concentration (10, 20, 40 and 80 µM) followed by incubation for 72 h. Further, the media of each well of the plates were aspirated with the addition of 100 µL MTT solution followed by incubation for the next 5 h at 37 °C. Finally, each well is treated with DMSO (100 µL) and swirled to dissolve the dark crystals of formazan. ELISA reader was used to measure the absorbance at 570 nm. The experiment was repeated three times; Graph pad prism and excel are used to calculate the IC50 values.
# [4] = test system: A549 (Lung) cancer cell line; assay: MTT cytotoxicity assay, A549; conditions: Homo sapiens, A549, 72 h, read-out: IC50 (µM) (Mean ± SD) A549
# Experimental: as §1
# [5] = biological target: Bovine serum albumin (BSA) (Bos taurus, UniProt P02769); assay: BSA (protein albumin) denaturation inhibition assay; conditions: for BSA denaturation inhibition assay Mean absorbance ± SEM: 660 nm; for inhibition at 100 µg/mL: read-out: BSA denaturation inhibition assay % inhibition of denaturation, 100 μg/mL
# Experimental: All the synthesized compounds were evaluated for anti-inflammatory activity by the inhibition of the albumin denaturation technique. […] All the test solutions (1 mL, 100 μg/mL) were then mixed with 1 mL of albumin solution (1%) and phosphate buffer saline and then incubated for around 15 min at 27 ± 1 °C. Further, the denaturation of protein was induced by keeping the reaction mixture on the water bath for 10 min and maintaining the temperature at 60 °C. Once the solution gets cooled, the turbidity was measured using UV–Visible spectrophotometer at 660 nm.
# EGFR kinase = EGFR kinase (Homo sapiens, UniProt P00533); assay: In vitro EGFR kinase inhibitory assay (ELISA, phospho-EGFR in A549 cell lysates)
# Experimental: For all the synthesized compounds, the overall methodology of a spectrophotometric assay for the inhibition of EGFR tyrosine kinase activity was evaluated in human A549 cells, which expressed high levels of EGFR protein. […] Cells were then washed with cold PBS, lysed in 0.2 ml/well of HNTG buffer (50 mM HEPES [(4‐(2‐hydroxyethyl)‐piperazineethanesulfonic acid; pH 7.5], 150 mM NaCl, 1.5 mM MgCl, 10% glycerol, 1% Triton X‐100, 0.5 mM sodium fluoride, 2 g/ml aprotinin, 2 g/ml pepstatin A, 1 mM sodium orthovanadate, 2 g/ml leupeptin, 1 mM phenyl methyl sulfonyl fluoride) for 10 min, and the lysates were collected as the supernatant fraction after a 12‐min centrifugation at 15,000 g. The specific EGFR concentration was measured by ELISA assay. Briefly, the wells of ELISA plates were coated with supernatant fraction and incubated at 4 °C overnight After washing three times with buffer (20 mM PBS, pH 7.2 containing 0.05% Tween‐20), the wells were blocked with 1% BSA for 2–3 h at room temperature. Further, the plate was washed and then mouse serum at 1,000‐fold dilution was added, followed by washing and incubation with phospho‐EGFR antibody (Invitrogen) at 4 °C overnight. The wells were washed and incubated with substrate solution (o‐phenylenediamine dihydrochloride), for 30 min, and the absorbance read on an ELISA plate reader at 490 nm[52]. %Inhibition=mean OD of untreated group-mean OD of treated group/mean OD of untreated group)×100.
# [6] = test system: gastric mucosa tissue of rats; assay: Lipid peroxidation in gastric mucosa; format: in vivo, rat; conditions: oral 0.0942 mmol/kg
# Experimental: The compounds screened for ulcerogenic potential were also analysed for lipid peroxidation. Lipid peroxidation is measured as nmolMDA/100 mg of gastric mucosa tissue. […] Thus, it was concluded that protection of gastric mucosa might be related to the inhibition of lipid peroxidation.
# Lipid peroxidation in the gastric mucosa was determined using the reported method by Ohkawa H. et al.[61]. The gastric mucosa of the glandular area was scraped off using glass slides after the stomach had been examined for ulcers. Gastric mucosa was weighed (100 mg) and homogenised in 1.8 cm^3 of ice-cold solution of KCl (1.15%). The homogenate is further added with 0.2 cm^3 of 8.1% sodium dodecyl sulphate (SDS), 1.5 cm^3 of acetate buffer, and 1.5 cm^3 of 0.8% thiobarbituric acid. After adding all buffers, the mixture was kept for incubation for 60 min over water bath, maintaining the temperature of the water bath at 95 °C. Later, the mixture was allowed to cool and then extracted with a freshly prepared mixture of n-butanol and pyridine (15:1 v/v), the organic layer obtained was centrifuged at 3000 rpm for about 10 min. The organic layer was separated out and visualised on UV–visible spectrophotometer. Concentration was measured using the following formula: Concentration=Absorbance×volume×109÷1.56×10^5×1000
# Results obtained were expressed as nmol MDA/100 mg tissue and extinction coefficient (1.56 × 10^5) cm^-1 M^-1.
# [7] = test system: carrageenan-induced rat hind paw edema; assay: Carrageenan-induced rat paw edema inhibition assay; format: in vivo; conditions: after 4 h; for % inhibition (paw edema) / Increase in Paw volume SEM: oral 0.0314 mmol/kg; for Increase in Paw volume SEM: n = 6; for Activity relative to standard drug: relative to diclofenac sodium
# Experimental: The anti-inflammatory efficacy of the newly synthesised compounds was assessed using a carrageenan-induced rat hind paw edema technique The animals were divided into groups of six at random, fasted for 24 h before to the experiment, and given free access to water. 0.5% CMC solution was given to the control group only. […] One hour after the administration of the test compounds and the reference drug, 0.1 mL of a 1% carrageenan solution in saline was subcutaneously injected into the subplantar area of the right hind paw of each rat. The right hind paw volume was measured using a Digital Plethysmometer PLM-01 Plus (Orchid Scientifics and Innovatives India Pvt. Ltd., Mumbai, India) at 3 and 4 h after carrageenan therapy. The following calculation was used to compute the percent edema inhibition from the mean effect in the treated and control animals: Percent edema inhibition=Vc-Vt/Vc×100 where Vc denotes the mean increase in paw volume in the control group of rats and Vt denotes the mean increase in paw volume in rats treated with test chemicals. After a 15-day washout period, the same group of rats utilised for the anti-inflammatory activity were employed for the ulcerogenic activity.
# gastric mucosa of rats = assay: Ulcerogenic activity; format: in vivo, rat; conditions: oral 0.0942 mmol/kg
# Experimental: The Compounds (4a-d, 5a-b) which were found potent as anti-inflammatory agents were further screened for their ulcerogenic risk. The compounds and the standard drug were tested at an oral dose of 0.0942 mmol/kg.
# Animals were divided into different groups consisting of 6 rats per group. […] The control group received 0.5% of the carboxymethylcellulose (CMC) solution. […] 24 h before the test compounds were administered. After receiving the medication, the rats were given regular food for 17 h and then sacrificed. The stomach was taken out and opened along its greater curvature before being gently cleansed by dipping it in normal saline and then washing it with distilled water. The mucosal injury/damage was examined thoroughly using a magnifying glass. The mucosal injury in each stomach was scored using the following score system: 0.5: Redness; 1.0: Spot Ulcers; 1.5: Hemorrhagic Streaks; 2.0: Ulcers > 3 but 5, 3.0: Ulcers > 5. The severity index (SI) of stomach mucosal injury was calculated as the mean score of each treated group minus the mean score of the control group.
# [8] = HEK293, MTT, 72 h, normal cell line
# Sequence of Bovine serum albumin (BSA) (P02769 25-607): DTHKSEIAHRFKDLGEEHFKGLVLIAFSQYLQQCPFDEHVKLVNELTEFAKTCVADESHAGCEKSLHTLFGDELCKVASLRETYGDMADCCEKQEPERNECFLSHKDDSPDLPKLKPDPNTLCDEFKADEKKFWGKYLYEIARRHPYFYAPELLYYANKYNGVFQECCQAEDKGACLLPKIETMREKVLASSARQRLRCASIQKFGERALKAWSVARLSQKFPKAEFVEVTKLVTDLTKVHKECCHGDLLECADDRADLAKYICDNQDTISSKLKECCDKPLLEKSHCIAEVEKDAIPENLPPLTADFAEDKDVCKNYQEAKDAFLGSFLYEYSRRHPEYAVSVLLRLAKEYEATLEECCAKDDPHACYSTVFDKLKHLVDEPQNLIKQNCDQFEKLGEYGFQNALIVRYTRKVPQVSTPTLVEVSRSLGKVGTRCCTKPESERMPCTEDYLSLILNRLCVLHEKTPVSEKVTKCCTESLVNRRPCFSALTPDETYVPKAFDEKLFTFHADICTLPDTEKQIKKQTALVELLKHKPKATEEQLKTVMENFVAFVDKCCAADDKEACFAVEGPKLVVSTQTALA
# Sequence of EGFR kinase (P00533 25-1210): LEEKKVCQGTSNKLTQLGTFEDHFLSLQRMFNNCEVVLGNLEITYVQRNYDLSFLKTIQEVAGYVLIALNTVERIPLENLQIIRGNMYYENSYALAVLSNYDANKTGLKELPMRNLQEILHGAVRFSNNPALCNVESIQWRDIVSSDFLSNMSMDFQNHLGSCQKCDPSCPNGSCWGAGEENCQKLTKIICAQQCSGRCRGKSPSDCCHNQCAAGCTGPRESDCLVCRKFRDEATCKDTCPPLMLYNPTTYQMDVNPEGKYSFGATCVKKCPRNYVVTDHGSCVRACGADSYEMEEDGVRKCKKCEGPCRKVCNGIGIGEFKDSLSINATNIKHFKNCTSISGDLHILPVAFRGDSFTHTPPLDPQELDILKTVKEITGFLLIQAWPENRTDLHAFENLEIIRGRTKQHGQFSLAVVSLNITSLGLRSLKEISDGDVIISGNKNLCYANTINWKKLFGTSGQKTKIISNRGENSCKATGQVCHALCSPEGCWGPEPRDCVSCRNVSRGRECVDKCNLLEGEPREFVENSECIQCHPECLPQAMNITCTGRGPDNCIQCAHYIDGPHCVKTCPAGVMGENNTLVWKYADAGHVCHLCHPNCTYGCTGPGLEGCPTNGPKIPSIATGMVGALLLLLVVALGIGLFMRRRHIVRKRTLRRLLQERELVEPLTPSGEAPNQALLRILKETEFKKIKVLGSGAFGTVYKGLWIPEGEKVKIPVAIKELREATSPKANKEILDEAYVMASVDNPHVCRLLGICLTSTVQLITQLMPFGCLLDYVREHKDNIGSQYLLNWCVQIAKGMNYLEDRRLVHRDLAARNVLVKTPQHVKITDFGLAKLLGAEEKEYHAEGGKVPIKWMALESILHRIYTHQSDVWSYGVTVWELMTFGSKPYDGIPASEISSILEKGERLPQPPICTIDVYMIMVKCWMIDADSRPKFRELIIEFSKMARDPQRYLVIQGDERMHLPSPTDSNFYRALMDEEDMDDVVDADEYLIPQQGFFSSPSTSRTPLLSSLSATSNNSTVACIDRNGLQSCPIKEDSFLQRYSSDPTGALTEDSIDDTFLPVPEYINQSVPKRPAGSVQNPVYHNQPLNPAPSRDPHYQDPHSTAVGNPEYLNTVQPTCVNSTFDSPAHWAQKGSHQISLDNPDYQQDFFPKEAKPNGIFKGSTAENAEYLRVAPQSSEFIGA
Compound,IC50 [1] [µM],IC50 [2] [µM],"IC50 ([3]; HEK293, 72 h) [µM]",IC50 [4] [µM],melting point [°C],BSA denaturation inhibition assay Mean absorbance ± SEM ([5]; 100 μg/mL),inhibition at 100 µg/mL [5] [%],IC50 (EGFR kinase) [µM],"IC50 [3, 8] [µM]",Lipid peroxidation [6] [Nmol MDA/100 mg tissue],% inhibition (paw edema) [7] [%],Increase in Paw volume SEM [7],Activity relative to standard drug [7],Mean ulcer severity index ± SEM (gastric mucosa of rats),BSA denaturation inhibition assay % inhibition of denaturation ([5]; 100 μg/mL) [%]
"C#Cc1cccc(Nc2ncnc3cc(OCCOC)c(OCCOC)cc23)c1 [Erlotinib, reference compound]",10.7 ± 5.65,12.5 ± 1.87,80.2 ± 1.3,8.34 ± 8.09,,,,,,,,,,,
"COc1ccc(N2C(=O)C(C)SC2c2c(-c3ccccc3)nc3sccn23)cc1 (centres unmarked) [Compound 4g, 3-(4-Methoxyphenyl)-5-methyl-2-(6-phenylimidazo[2,1-b]thiazol-5-yl) thiazolidin-4-one]",52.9 ± 1.65,76.3 ± 5.66,,70.1 ± 2.02,162 to 164,0.291 ± 0.011,62.1,46.5 ± 7.14,164 ± 4.69,,,,,,
Cc1ccc(N2C(=O)C(C)SC2c2c(-c3ccccc3)nc3sccn23)cc1 (centres unmarked) [Compound 4f],33.7 ± 0.84,47.6 ± 8.97,,40.22 ± 0.38,155 to 157,0.288 ± 0.002,60.6,49.7 ± 4.89,147 ± 4.57,,,,,,
"O=C1CSC(c2c(-c3ccccc3)nc3sccn23)N1c1ccc(Cl)cc1 (centres unmarked) [Compound 5a, 3-(4-Chlorophenyl)-2-(6-phenylimidazo[2,1-b]thiazol-5-yl) thiazolidin-4-one]",35.1 ± 1.25,58.8 ± 3.14,,42.7 ± 3.35,177 to 179,0.323 ± 0.002,79.9,30.1 ± 4.17,117 ± 5.69,5.75 ± 0.102,76.24,0.163 ± 0.018,94.92,1.083 ± 0.238,
"O=C1CSC(c2c(-c3ccccc3)nc3sccn23)N1c1ccc(Br)cc1 (centres unmarked) [Compound 5b, 3-(4-Bromophenyl)-2-(6-phenylimidazo[2,1-b]thiazol-5-yl) thiazolidin-4-one]",44.2 ± 0.85,58.6 ± 4.51,,35.5 ± 2.15,159 to 161,0.317 ± 0.003,76.6,33.1 ± 1.58,105 ± 3.5,5.68 ± 0.071,74.78,0.133 ± 0.008,93.10,1.000 ± 0.258,
Cc1ccc(N2C(=O)CSC2c2c(-c3ccccc3)nc3sccn23)cc1 (centres unmarked) [Compound 5c],35.8 ± 4.61,60 ± 6.44,,34.2 ± 2.82,153 to 155,0.314 ± 0.003,79.9,29.3 ± 4.61,109 ± 5.32,,,,,,65.28
"CC1SC(c2c(-c3ccccc3)nc3sccn23)N(c2ccc([N+](=O)[O-])cc2)C1=O (centres unmarked) [Compound 4e, 5-Methyl-3-(4-nitrophenyl)-2-(6-phenylimidazo[2,1-b]thiazol-5-yl) thiazolidin-4-one]",43.6 ± 7.19,89.9 ± 4.89,,50.6 ± 0.7,187 to 189,0.289 ± 0.012,61.1,57.1 ± 0.38,125 ± 5.8,,,,,,
"CC1SC(c2c(-c3ccccc3)nc3sccn23)N(c2ccc(Cl)cc2Cl)C1=O (centres unmarked) [Compound 4d, 3-(2,4-Dichlorophenyl)-5-methyl-2-(6-phenylimidazo[2,1-b]thiazol-5-yl)thiazolidin-4-one]",35.8 ± 1.03,49.5 ± 7.14,,31.8 ± 1.1,151 to 153,0.326 ± 0.002,82,36 ± 1.89,181 ± 5.74,6.16 ± 0.135,67.78,,84.39,1.250 ± 0.281,
"COc1ccc(N2C(=O)CSC2c2c(-c3ccccc3)nc3sccn23)cc1 (centres unmarked) [Compound 5d, 3-(4-Methoxyphenyl)-2-(6-phenylimidazo[2,1-b]thiazol-5-yl) thiazolidin-4-one]",38.1 ± 0.89,65.2 ± 0.9,,33.1,160 to 162,0.287 ± 0.004,59.9,48 ± 1.97,111.8 ± 0.25,,,,,,
